The values below come from publication PMC10186366 (ACS Pharmacology & Translational Science, 2023).

One assay has as its target T1, human ATIC (AICARFTase) (Homo sapiens, UniProt P31939).
T1 construct: full-length human ATIC; made in house; host or cells: E. coli Rosetta (DE3)pLysS
Description: In vitro AICARFTase (ATIC) enzyme assay (THF formation from 10-CHOTHF). Type of assay: biochemical. Particulars: monoglutamyl antifolates; mean (standard error), at least three replicate assays; tested up to 200 μM. The procedure:
We directly tested inhibition potencies by in vitro assays using purified GARFTase and ATIC (AICARFTase) to calculate inhibition dissociation constants (Ki’s) (Table 2).[45]
N-terminal hexahistidine-tagged GARFTase (formyltransferase domain; residues 808–1010) and full-length human ATIC were expressed in Rosetta (DE3)pLysS cells.[45],[48] Cultures (1 L) were grown at 37 °C in LB media with 100 μg/mL ampicillin and 34 μg/mL chloramphenicol until OD600 reached 0.6. Isopropyl β-D-1-thiogalactopyranoside (500 μM) was added, and the cells were incubated at 20 °C for 16–18 h. The cultures were pelleted and resuspended in 40 mL of 25 mM Tris–HCl, pH 7.5, 300 mM NaCl, 5 mM β-mercaptoethanol (β-ME), 10 mM CaCl2, 10 mM MgCl2, 40 mg lysozyme, and 8 U DNAse I (Sigma). The cells were lysed by emulsification.
His-ATIC was purified from the lysate by immobilized metal affinity chromatography with a 4 mL Ni-NTA column (Gold Biotechnology).[45] The column was washed with 5 CV of 25 mM Tris–HCl, pH 7.5, 300 mM NaCl, 10 mM imidazole, and 5 mM β-ME (wash buffer) followed by 5 CV of the wash buffer containing 25 mM imidazole. The protein was eluted with 5 CV of the elution buffer containing components of the wash buffer with 300 mM imidazole. Further purification was by ÄKTA FPLC (GE Healthcare) with a Superdex 200 16/60 (GE Healthcare) column equilibrated with 20 mM Tris–HCl, pH 7.5, 150 mM NaCl, 50 mM KCl, 5 mM EDTA, and 5 mM dithiothreitol (DTT). His-ATIC was stored at 150 μM at 4 °C in this buffer (up to 6 months) or at 100 μM with 20% glycerol at −80 °C for longer-term storage.
GARFTase catalytic activity was measured by monitoring THF formation from 10-CHOTHF.[32],[45],[48] GARFTase assays included 40 μM 10-CHO-THF, 50 nM His-GARFTase, 15 μM α,β-GAR, and a range of inhibitor concentrations in 25 mM Tris–HCl, pH 8.0, 300 mM NaCl, and 5 mM β-ME at 37 °C.[45] AICARFTase catalytic activity was measured by monitoring THF formation from 10-CHOTHF.[54] Reactions included 50 μM 10-CHOTHF, 100 nM His-ATIC, 50 μM ZMP, and inhibitors in 32.6 mM Tris–HCl, pH 7.5, 25 mM KCl, and 5 mM β-ME at 25 ° C.[45] Kinetic measurements were recorded in triplicate in a UV-transparent 96-well plate (Costar 3635) at 298 nm using a BioTek Synergy Neo2 Plate Reader. Initial slopes were graphed against inhibitor concentrations and fit to a three-parameter nonlinear regression to calculate IC50 values for each compound (GraphPad Prism 8.0). […] SHMT2 activity was assayed by monitoring NADH production with a coupled assay including 500 nM His-SHMT2 and 10 μM His-MTHFD2 ([…] molar ratio His-SHMT2/His-MTHFD2). NADH production by His-MTHFD2 was monitored by fluorescence at 470 nm with excitation at 360 nm (Synergy Neo2 Biotek plate reader). Inhibition constants (Ki’s) were calculated from the IC50 values using the equation Ki = IC50/([S]/KM + 1) and the Km and substrate concentration for THF. The THF concentration in the reaction was […]. The calculated Km value for THF with His-SHMT2 was 62.8 μM.

In another assay the target is T2, human GARFTase (Homo sapiens, UniProt P22102).
T2 construct: GARFTase (formyltransferase domain; residues 808–1010); made in house; host or cells: E. coli Rosetta (DE3)pLysS
T2 sequence (P22102 808-1010): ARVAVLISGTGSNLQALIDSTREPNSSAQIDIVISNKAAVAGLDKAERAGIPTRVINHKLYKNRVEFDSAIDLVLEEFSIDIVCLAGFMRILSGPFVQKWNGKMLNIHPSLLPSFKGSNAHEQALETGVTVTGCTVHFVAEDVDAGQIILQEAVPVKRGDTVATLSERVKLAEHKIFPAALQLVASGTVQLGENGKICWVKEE
Description: In vitro GARFTase enzyme assay (THF formation from 10-CHOTHF). In kind it is biochemical.

[1] abbreviates: monoglutamyl antifolates, mean (standard error), at least three replicate assays, tested up to 150 μM, read-out: GARFTase Ki.

The structures appear in SMILES notation. Like-named read-outs stand apart in the source and are kept apart here.

T1 sequence (P31939 whole entry): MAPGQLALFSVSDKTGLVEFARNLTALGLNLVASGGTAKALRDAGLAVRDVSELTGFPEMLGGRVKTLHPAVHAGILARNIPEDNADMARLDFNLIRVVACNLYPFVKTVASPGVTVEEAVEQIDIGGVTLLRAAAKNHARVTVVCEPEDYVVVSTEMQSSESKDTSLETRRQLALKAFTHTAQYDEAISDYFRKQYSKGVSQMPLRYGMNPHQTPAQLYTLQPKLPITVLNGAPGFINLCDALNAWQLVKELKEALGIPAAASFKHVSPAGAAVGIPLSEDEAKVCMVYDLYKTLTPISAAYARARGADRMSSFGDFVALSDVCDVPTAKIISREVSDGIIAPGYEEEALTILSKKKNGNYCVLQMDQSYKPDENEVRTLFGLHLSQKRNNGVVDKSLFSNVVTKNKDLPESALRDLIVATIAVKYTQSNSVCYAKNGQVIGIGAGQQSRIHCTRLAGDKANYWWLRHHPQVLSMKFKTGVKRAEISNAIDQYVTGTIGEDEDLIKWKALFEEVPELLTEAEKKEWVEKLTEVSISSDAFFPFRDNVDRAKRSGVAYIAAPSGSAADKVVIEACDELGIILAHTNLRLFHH
Description for human GARFTase: His-GARFTase was purified from the lysate by ÄKTA FPLC (GE Healthcare) with a Ni-NTA column (Qiagen, Valencia, CA).[48] The column was washed with 5 column volumes (CV) of 25 mM Tris–HCl, pH 8, 300 mM NaCl, 10% glycerol, and 5 mM β-ME. His-GARFTase was eluted with a 0 to 75% gradient of 25 mM Tris–HCl, pH 8, 300 mM NaCl, 10% glyercol, 300 mM imidazole, and 5 mM β-ME over 10 CV. Further purification involved size exclusion chromatography on a Superdex 75 16/60 (GE Healthcare) column with 25 mM Tris–HCl, pH 8, 10 mM β-ME, and 300 mM NaCl. Purified His-GARFTase was stored at 90 μM in 20% glycerol at −80 °C.
GARFTase catalytic activity was measured by monitoring THF formation from 10-CHOTHF.[32],[45],[48] […] Initial slopes were graphed against inhibitor concentrations and fit to a three-parameter nonlinear regression to calculate IC50 values for each compound (GraphPad Prism 8.0). […] Inhibition constants (Ki’s) were calculated from the IC50 values using the equation Ki = IC50/([S]/KM + 1) and the Km and substrate concentration for THF.

The term Ki denotes a dissociation constant, usually derived from enzyme kinetics or from competition with a known ligand. For `Nc1nc2sc(CCCCc3cccc(C(=O)N[C@@H](CCC(=O)O)C(=O)O)n3)cc2c(=O)[nH]1` [Compound 3, (6-(4-(2-Amino-4-oxo-3,4-dihydrothieno[2,3-d]pyrimidin-6-yl)butyl)picolinoyl)-L-glutamic Acid], the Ki on human ATIC (AICARFTase) is 18.4 µM; on human GARFTase (setting [1]), 26.7 µM.

As to `Nc1nc2sc(CCCc3csc(C(=O)N[C@@H](CCC(=O)O)C(=O)O)c3F)cc2c(=O)[nH]1` [Compound 8, (4-(3-(2-Amino-4-oxo-3,4-dihydrothieno[2,3-d]pyrimidin-6-yl)propyl)-3-fluorothiophene-2-carbonyl)-L-glutamic Acid], the results for the inhibition constant (Ki) on human ATIC (AICARFTase) and at human GARFTase (setting [1]) were 14.5 µM and 3.1 µM, respectively.

On to `Nc1nc2sc(CCCCc3ccc(C(=O)N[C@@H](CCC(=O)O)C(=O)O)c(F)c3)cc2c(=O)[nH]1` [Compound 7, (4-(4-(2-Amino-4-oxo-3,4-dihydrothieno[2,3-d]pyrimidin-6-yl)butyl)-2-fluorobenzoyl)-L-glutamic Acid], for which the figures for the Ki on human ATIC (AICARFTase) and at human GARFTase (setting [1]) were 19.4 µM and greater than 150 µM, respectively.

For `Nc1nc2sc(CCCCc3cnc(C(=O)N[C@@H](CCC(=O)O)C(=O)O)c(F)c3)cc2c(=O)[nH]1` [Compound 5, (5-(4-(2-Amino-4-oxo-3,4-dihydrothieno[2,3-d]pyrimidin-6-yl)butyl)-3-fluoropicolinoyl)-L-glutamic Acid], the values for the Ki at human ATIC (AICARFTase) and at human GARFTase (setting [1]) were greater than 200 µM and 13.7 µM, respectively.

With `Nc1nc2sc(CCCCc3csc(C(=O)N[C@@H](CCC(=O)O)C(=O)O)c3F)cc2c(=O)[nH]1` [Compound 9, (4-(4-(2-Amino-4-oxo-3,4-dihydrothieno[2,3-d]pyrimidin-6-yl)butyl)-3-fluorothiophene-2-carbonyl)-L-glutamic Acid], the Ki on human ATIC (AICARFTase) worked out at 23.7 µM. Further, on human GARFTase, the affinity corresponds to a Ki of 0.17 µM. On human GARFTase (ratio of Ki values), the “GARFTase potency of 9 relative to 2” value was 17 fold and the “GARFTase potency of 9 relative to 10” value came to 25 fold.

Regarding `Nc1nc2sc(CCCc3ccc(C(=O)N[C@@H](CCC(=O)O)C(=O)O)cc3)cc2c(=O)[nH]1` [Compound 1], on human ATIC (AICARFTase), the Ki is greater than 200 µM.

Consider `Nc1nc2sc(CCCCc3ccc(C(=O)N[C@@H](CCC(=O)O)C(=O)O)nc3)cc2c(=O)[nH]1` [Compound 4, (5-(4-(2-Amino-4-oxo-3,4-dihydrothieno[2,3-d]pyrimidin-6-yl)butyl)picolinoyl)-L-glutamic Acid], for which the inhibition constant Ki on human ATIC (AICARFTase) is 12.1 µM; at human GARFTase, greater than 150 µM.

For the compound `Nc1nc2sc(CCCc3ccc(C(=O)N[C@@H](CCC(=O)O)C(=O)O)c(F)c3)cc2c(=O)[nH]1` [Compound 6, (4-(3-(2-Amino-4-oxo-3,4-dihydrothieno[2,3-d]pyrimidin-6-yl)propyl)-2-fluorobenzoyl)-L-glutamic Acid], the Ki on human ATIC (AICARFTase) is 7.3 µM; at human GARFTase (setting [1]), greater than 150 µM.
